Laboratory results as given in patent US11952344B2, “Heterocyclic compound and use thereof” (TAKEDA PHARMACEUTICAL COMPANY LIMITED, priority 2019, dated 2024).

molecular target: T1, Human NMDA (NR1/NR2B) Receptor (Homo sapiens, UniProt Q13224); assay: NR2B Ca2+ influx assay; assay type: cell-based; details: 10 μM compound; HEK293 cells expressing GRIN1 and GRIN2B; glutamic acid/glycine-induced Ca2+ influx, Fluo-4 fluorescence; read-out: inhibitory rate (10 μM compound concentration)
T1 construct: host or cells: HEK293
Source text: Experimental Example 1 NR2B Ca^2+ Influx Assay
To confirm the “antagonistic action on an NMDA receptor containing the NR2B subunit” of the compound of the present invention, human embryonic kidney cell expressing the “NMDA receptor composed of four subunits including 2 sets of heterodimers of NR1 and NR2B”, specifically HEK293 cell expressing human glutamate ionotropic receptor NMDA type subunit 1 (GRIN1) and human glutamate ionotropic receptor NMDA type subunit 2B (GRIN2B), was used and the activation suppressive effect (inhibitory activity) on the receptors by the compound of the present invention was measured.
HEK293 cells that express GRIN1 and GRIN2B were purchased from ChanTest (Human NMDA (NR1/NR2B) Receptor-expressing, stable replicating cell line (HEK293) catalog No. CT6121).
As an index of the NMDA receptor activation, intracellular calcium ion (Ca^2+) influx caused by the binding of glycine and glutamic acid with NR1 and NR2B, respectively, was used.
HEK293 cells that express GRIN1 and GRIN2B were cultured in a cell culture flask in DMEM/F-12 (COSMO BIO, 10-092-CM) medium added with 10% FBS (fetal bovine serum, AusGene), 100 units/mL penicillin, 100 μg/mL streptomycin, 500 μg/mL neomycin, 100 μg/mL Zeocin (registered trade mark, Invitrogen), 5 μg/mL Blasticidin, in an incubator (37° C., 5% CO2).
The cells were detached from flask with trypsin the day before the assay, suspended in a seeding medium (DMEM (Invitrogen, 31053) added with 10% FBS, 100 units/mL penicillin, 100 μg/mL streptomycin) at 8×10^5 cells/mL, seeded by 25 μL/well in a 384-well plate (Falcon, 356663) at 20000 cells/well, and cultured overnight in an incubator. On the day of the assay, tetracycline (Wako Pure Chemical Industries, Ltd., 209-16561) was diluted with the seeding medium at 2 μg/mL, added at 25 μL/well to the plate seeded with the cells, and cultured for 2 hr in an incubator. Thereafter, the medium was removed, and the cells were washed with 50 μL/well assay buffer (137 mM NaCl, 4 mM KCl, 1.8 mM CaCl2, 10 mM HEPES (pH 7.2), 10 mM Glucose, 0.1% BSA). Then, a loading buffer (assay buffer added with 2.5 μM Fluo-4AM, 2 mM Amaranth, 1 mM Tartrazine) was added at 25 μL/well, and incubation was performed in the incubator for 30 min, and at room temperature for 15 min. A solution (25 μL/well) of the Example compound diluted with the above-mentioned assay buffer at 30 μM (final concentration 10 μM) was added, and the cells were stood for 15 min at room temperature. Using FDSS7000EX/μCELL (Hamamatsu Photonics K.K.), 25 μL/well of an assay buffer containing 30 μM glutamic acid, 30 μM glycine was added, and the fluorescence signal at wavelength of Excitation 480 nm, Emission 540 nm was measured every 3 seconds for 5 min. The inhibitory activity was calculated as a relative activity value (inhibitory rate) that inhibits 100% of the cumulative value of the fluorescence value of a well added with an assay buffer free of glutamic acid, glycine, relative to the cumulative value of the fluorescence value of each well.

T1 sequence (Q13224 27-1484, other chains not shown): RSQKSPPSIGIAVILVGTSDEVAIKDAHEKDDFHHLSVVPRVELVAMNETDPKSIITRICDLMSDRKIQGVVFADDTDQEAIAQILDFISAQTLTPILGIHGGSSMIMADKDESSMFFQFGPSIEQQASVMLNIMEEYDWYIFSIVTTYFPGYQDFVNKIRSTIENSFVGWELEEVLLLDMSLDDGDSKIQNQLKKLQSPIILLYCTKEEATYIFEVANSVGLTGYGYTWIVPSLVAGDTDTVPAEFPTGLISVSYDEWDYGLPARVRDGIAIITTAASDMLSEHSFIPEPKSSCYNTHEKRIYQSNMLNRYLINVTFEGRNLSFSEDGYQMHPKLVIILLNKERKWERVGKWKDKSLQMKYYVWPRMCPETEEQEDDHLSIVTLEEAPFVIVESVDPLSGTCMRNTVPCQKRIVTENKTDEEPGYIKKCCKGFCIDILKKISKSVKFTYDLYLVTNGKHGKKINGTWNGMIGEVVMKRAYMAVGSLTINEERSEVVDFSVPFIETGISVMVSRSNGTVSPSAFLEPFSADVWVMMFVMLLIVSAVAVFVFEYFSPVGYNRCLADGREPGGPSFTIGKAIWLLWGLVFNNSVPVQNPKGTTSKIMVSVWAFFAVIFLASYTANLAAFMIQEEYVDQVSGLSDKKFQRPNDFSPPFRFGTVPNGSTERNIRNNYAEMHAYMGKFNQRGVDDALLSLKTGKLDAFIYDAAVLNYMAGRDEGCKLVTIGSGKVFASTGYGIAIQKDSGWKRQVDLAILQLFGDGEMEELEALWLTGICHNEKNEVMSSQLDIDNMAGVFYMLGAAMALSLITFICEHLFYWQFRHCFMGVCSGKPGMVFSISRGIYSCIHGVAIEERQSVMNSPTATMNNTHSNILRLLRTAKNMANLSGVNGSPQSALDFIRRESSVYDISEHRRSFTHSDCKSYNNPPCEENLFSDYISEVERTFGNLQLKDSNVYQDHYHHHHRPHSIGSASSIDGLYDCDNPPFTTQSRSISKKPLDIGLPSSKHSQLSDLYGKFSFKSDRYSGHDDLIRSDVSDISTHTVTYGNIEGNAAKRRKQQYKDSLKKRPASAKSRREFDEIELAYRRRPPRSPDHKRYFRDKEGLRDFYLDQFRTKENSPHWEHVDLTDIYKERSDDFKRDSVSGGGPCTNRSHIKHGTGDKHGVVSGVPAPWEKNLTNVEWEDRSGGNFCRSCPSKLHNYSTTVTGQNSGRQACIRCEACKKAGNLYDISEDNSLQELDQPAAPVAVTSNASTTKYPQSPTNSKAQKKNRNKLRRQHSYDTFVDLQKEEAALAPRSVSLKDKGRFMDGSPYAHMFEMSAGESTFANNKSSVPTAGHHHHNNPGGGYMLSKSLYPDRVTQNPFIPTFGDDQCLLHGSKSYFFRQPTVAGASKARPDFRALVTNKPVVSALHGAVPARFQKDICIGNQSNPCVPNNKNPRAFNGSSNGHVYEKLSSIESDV

**Q.** Which inhibition at 10 µM does the source give for COc1ncncc1CNC(=O)c1cnc(OC(F)F)c(Cl)c1 [Example 21, 5-chloro-6-(difluoromethoxy)-N-[(4-methoxypyrimidin-5-yl)methyl]pyridine-3-carboxamide] here?
**A.** 93%

**Q.** Cc1ccncc1CNC(=O)c1ccc(OC(F)F)nc1 [Example 51, 6-(difluoromethoxy)-N-[(4-methylpyridin-3-yl)methyl]pyridine-3-carboxamide] was tested. Which inhibition at 10 µM did it give?
**A.** 87%

**Q.** How did the inhibition at 10 µM turn out when COc1ncncc1CNC(=O)c1ccc(OC(F)F)cc1 [Example 25, 4-(difluoromethoxy)-N-[(4-methoxypyrimidin-5-yl)methyl]benzamide] was run?
**A.** 88%

**Q.** COc1c(F)cc(C(=O)NCc2cncnc2OC2CC2)cc1F [Example 74, N-{[4-(cyclopropyloxy)-pyrimidin-5-yl]methyl}-3,5-difluoro-4-methoxybenzamide] was tested. Which inhibition at 10 µM did it give?
**A.** 90%

**Q.** For O=C(NCc1cnccc1OC(F)F)c1ccc(OC(F)(F)F)c(F)c1 [Example 112, N-[(4-(difluoromethoxy)-pyridin-3-yl)methyl]-3-fluoro-4-(trifluoromethoxy)-benzamide], which inhibition at 10 µM is on record?
**A.** 96%

**Q.** Cc1ccncc1CNC(=O)c1ccc(OC(F)(F)F)cc1 [Example 4, N-[(4-methylpyridin-3-yl)methyl]-4-(trifluoromethoxy)benzamide] was tested. Which inhibition at 10 µM did it give?
**A.** 96%

**Q.** Cc1ccncc1CNC(=O)c1cnc(C(F)(F)F)c(Cl)c1 [Example 52, 5-chloro-N-[(4-methylpyridin-3-yl)methyl]-6-(trifluoromethyl)pyridine-3-carboxamide] was tested. Which inhibition at 10 µM did it give?
**A.** 83%

**Q.** For O=C(NCc1cnccc1OC(F)F)c1cnc(OC(F)F)c(Cl)c1 [Example 111, 5-chloro-6-(difluoromethoxy)-N-[(4-(difluoromethoxy)pyridin-3-yl)methyl]pyridine-3-carboxamide], which inhibition at 10 µM is on record?
**A.** 94%

**Q.** For Cc1c(F)cncc1CNC(=O)c1cnc(C2CC2)c(F)c1 [Example 80, 6-cyclopropyl-5-fluoro-N-[(5-fluoro-4-methylpyridin-3-yl)methyl]pyridine-3-carboxamide], which inhibition at 10 µM is on record?
**A.** 94%

**Q.** How did the inhibition at 10 µM turn out when Cc1c(F)cncc1CNC(=O)c1cnc(C(C)(F)F)c(Cl)c1 [Example 98, 5-chloro-6-(1,1-difluoroethyl)-N-[(5-fluoro-4-methylpyridin-3-yl)methyl]pyridine-3-carboxamide] was run?
**A.** 95%

**Q.** Which inhibition at 10 µM does the source give for COc1c(F)cc(C(=O)NCc2cncc(F)c2OC)cc1F [Example 90, 3,5-difluoro-N-[(5-fluoro-4-methoxypyridin-3-yl)methyl]-4-methoxybenzamide] here?
**A.** 95%

**Q.** With COc1ncncc1CNC(=O)c1ccc(OC(F)(F)F)cc1 [Example 26, N-[(4-methoxypyrimidin-5-yl)methyl]-4-(trifluoromethoxy)-benzamide] as the compound, how does the inhibition at 10 µM read?
**A.** 93%

**Q.** With Cc1ccncc1CNC(=O)c1cc(F)c(C(F)F)c(F)c1 [Example 57, 4-(difluoromethyl)-3,5-difluoro-N-[(4-methylpyridin-3-yl)methyl]benzamide] as the compound, how does the inhibition at 10 µM read?
**A.** 78%

**Q.** With O=C(NCc1cncnc1OC1CC(F)(F)C1)c1cnc(OC(F)F)c(F)c1 [Example 32, N-({4-[(3,3-difluorocyclobutyl)-oxy]pyrimidin-5-yl}methyl)-6-(difluoromethoxy)-5-fluoropyridine-3-carboxamide] as the compound, how does the inhibition at 10 µM read?
**A.** 96%

**Q.** How did the inhibition at 10 µM turn out when COc1ccncc1CNC(=O)c1ccc(C(F)(F)F)c(F)c1 [Example 9, 3-fluoro-N-[(4-methoxypyridin-3-yl)methyl]-4-(trifluoromethyl)benzamide] was run?
**A.** 90%

**Q.** Which inhibition at 10 µM does the source give for COc1ncc(C(=O)NCc2cnccc2C)cc1Cl [Example 66, 5-chloro-6-methoxy-N-[(4-methylpyridin-3-yl)methyl]pyridine-3-carboxamide] here?
**A.** 84%

**Q.** Which inhibition at 10 µM does the source give for O=C(NCc1cnccc1OC1CC1)c1cnc(OC(F)F)c(F)c1 [Example 14, N-{[4-(cyclopropyloxy)-pyridin-3-yl]methyl}-6-(difluoromethoxy)-5-fluoropyridine-3-carboxamide] here?
**A.** 96%

**Q.** How did the inhibition at 10 µM turn out when COc1ncncc1CNC(=O)c1cnc(C(C)(F)F)c(Cl)c1 [Example 96, 5-chloro-6-(1,1-difluoroethyl)-N-[(4-methoxypyrimidin-5-yl)methyl]pyridine-3-carboxamide] was run?
**A.** 85%

**Q.** Which inhibition at 10 µM does the source give for O=C(NCc1cnccc1C(F)F)c1cnc(OC(F)F)c(F)c1 [Example 70, 6-(difluoromethoxy)-N-{[4-(difluoromethyl)pyridin-3-yl]methyl)-5-fluoropyridine-3-carboxamide] here?
**A.** 91%

**Q.** With COc1ncncc1CNC(=O)c1cnc(C2CC2)c(F)c1 [Example 82, 6-cyclopropyl-5-fluoro-N-[(4-methoxypyrimidin-5-yl)methyl]pyridine-3-carboxamide] as the compound, how does the inhibition at 10 µM read?
**A.** 89%

**Q.** How did the inhibition at 10 µM turn out when Cc1ccncc1CNC(=O)c1cnc(C(C)(F)F)c(Cl)c1 [Example 97, 5-chloro-6-(1,1-difluoroethyl)-N-[(4-methylpyridin-3-yl)methyl]pyridine-3-carboxamide] was run?
**A.** 92%

**Q.** With Cc1c(F)cncc1CNC(=O)c1cnc(C2CC2(F)F)c(Cl)c1 (centres unmarked) [Example 104, 5-chloro-6-(2,2-difluorocyclopropyl)-N-[(5-fluoro-4-methylpyridin-3-yl)methyl]pyridine-3-carboxamide] as the compound, how does the inhibition at 10 µM read?
**A.** 95%

**Q.** For CCc1c(F)cncc1CNC(=O)c1cnc(OC(F)F)c(F)c1 [Example 41, 6-(difluoromethoxy)-N-[(4-ethyl-5-fluoropyridin-3-yl)methyl]-5-fluoropyridine-3-carboxamide], which inhibition at 10 µM is on record?
**A.** 94%

**Q.** How did the inhibition at 10 µM turn out when CCOc1ccncc1CNC(=O)c1cnc(OC(F)F)c(F)c1 [Example 10, 6-(difluoromethoxy)-N-[(4-ethoxypyridin-3-yl)methyl]-5-fluoropyridine-3-carboxamide] was run?
**A.** 96%

**Q.** For O=C(NCc1cncc(Cl)c1)c1ccc(OC(F)(F)F)cc1 [Example 2, N-[(5-chloropyridin-3-yl)methyl]-4-(trifluoromethoxy)benzamide], which inhibition at 10 µM is on record?
**A.** 93%

**Q.** Which inhibition at 10 µM does the source give for Cc1ccncc1CNC(=O)c1cnc(C(C)(F)F)c(F)c1 [Example 93, 6-(1,1-difluoroethyl)-5-fluoro-N-[(4-methylpyridin-3-yl)methyl]pyridine-3-carboxamide] here?
**A.** 90%

**Q.** Cc1ccncc1CNC(=O)c1csc(C(F)F)c1 [Example 100, 5-(difluoromethyl)-N-[(4-methylpyridin-3-yl)methyl]thiophene-3-carboxamide] was tested. Which inhibition at 10 µM did it give?
**A.** 72%

**Q.** For COc1ccc(C(=O)NCc2cnccc2C)cc1F [Example 60, 3-fluoro-4-methoxy-N-[(4-methylpyridin-3-yl)methyl]benzamide], which inhibition at 10 µM is on record?
**A.** 88%

**Q.** For Cc1ccncc1CNC(=O)c1ccc(C(F)(F)F)c(Cl)c1 [Example 54, 3-chloro-N-[(4-methylpyridin-3-yl)methyl]-4-(trifluoromethyl)-benzamide], which inhibition at 10 µM is on record?
**A.** 94%

**Q.** For O=C(NCc1cnccc1C(F)(F)F)c1cnc(OC(F)F)c(F)c1 [Example 16, 6-(difluoromethoxy)-5-fluoro-N-{[4-(trifluoromethyl)pyridin-3-yl]methyl}pyridine-3-carboxamide], which inhibition at 10 µM is on record?
**A.** 94%

**Q.** How did the inhibition at 10 µM turn out when COc1ncncc1CNC(=O)c1ccc(OC(F)F)c(F)c1 [Example 13, 4-(difluoromethoxy)-3-fluoro-N-[(4-methoxypyrimidin-5-yl)methyl]benzamide] was run?
**A.** 93%

**Q.** How did the inhibition at 10 µM turn out when Cc1c(F)cncc1CNC(=O)c1cnc(OC(F)F)c(Cl)c1 [Example 73, 5-chloro-6-(difluoromethoxy)-N-[(5-fluoro-4-methylpyridin-3-yl)methyl]pyridine-3-carboxamide] was run?
**A.** 93%
